In this assay the target is T1, Bcl-wΔ29 (Homo sapiens, UniProt Q92843).
T1 construct: GST tagged Bclw ΔC29 protein
T1 sequence (Q92843 1-164 limits assumed): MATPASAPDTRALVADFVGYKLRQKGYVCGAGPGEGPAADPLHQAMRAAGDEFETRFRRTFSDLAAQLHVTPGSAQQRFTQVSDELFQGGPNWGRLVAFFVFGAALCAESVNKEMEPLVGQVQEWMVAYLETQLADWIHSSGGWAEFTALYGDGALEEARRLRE
Put plainly: Alphascreen GST competition binding assay, benzoylurea compounds vs Biotinylated Bim BH3-26 peptide on GST tagged Bclw ΔC29 protein. The following applies: GST tagged Bclw ΔC29 protein 0.05 nM, Biotinylated Bim BH3-26 peptide 3.0 nM, 4 hours at room temperature; values marked a tested in a separate experiment; n.b. = not binding in the assay conditions.
In turn, `CCCN(C(=O)N[C@@H](CSCc1ccccc1)C(=O)O)C(=O)c1ccc(-c2ccc(F)cc2)cc1` [(11)] showed an IC50 of 104 µM.
The molecule `O=C(O)[C@H](CSCc1ccccc1)NC(=O)N(Cc1cccnc1)C(=O)c1cccc(-c2ccccc2)c1` [(12)] registered an IC50 of 46 µM.
Molecule `CCCN(C(=O)N[C@@H](CSCc1ccccc1)C(=O)O)C(=O)c1cccc(-c2cccc3ccccc23)c1` [(13)] returned an IC50 of 31 µM.
The value for `CCCN(C(=O)N[C@@H](CSCc1ccccc1)C(=O)O)C(=O)c1cccc(-c2ccc3ccccc3c2)c1` [(14)] was 36 µM; that for `CCCN(C(=O)N[C@@H](Cc1ccc(-c2ccccc2)cc1)C(=O)O)C(=O)c1cccc(-c2ccccc2)c1` [(15)] was 41 µM.
As to `CCCN(C(=O)N[C@@H](CCc1ccccc1)C(=O)O)C(=O)c1cccc(-c2ccccc2)c1` [(16)], the 50% inhibitory concentration (IC50) worked out at 130 µM.
In turn, `CCCN(C(=O)N[C@@H](Cc1ccc2ccccc2c1)C(=O)O)C(=O)c1cccc(-c2ccccc2)c1` [(17)] had a half-inhibitory concentration (IC50) of 55 µM.
Molecule `CCCN(C(=O)N[C@@H](Cc1cccc2ccccc12)C(=O)O)C(=O)c1cccc(-c2ccccc2)c1` [(18)] yielded an IC50 of 60 µM.
`CCCN(C(=O)N[C@@H](CCCc1ccccc1)C(=O)O)C(=O)c1cccc(-c2ccccc2)c1` [(19)] showed a half-maximal inhibitory concentration (IC50) of 132 µM.
`CCCN(C(=O)N[C@H](CSCc1ccccc1)C(=O)O)C(=O)c1cccc(-c2ccccc2)c1` [(21)] came in with an IC50 of 84 µM.
To `CCCN(C(=O)N[C@@H](CSc1ccccc1)C(=O)O)C(=O)c1cccc(-c2ccccc2)c1` [(22)] belongs 80 µM.
On to `CCCN(C(=O)N[C@@H](CSCc1ccccc1)C(=O)O)C(=O)c1ccc(-c2ccccc2)cc1` [(23)], for which the IC50 was found to be 76 µM.
As for `O=C(O)[C@H](CSCc1ccccc1)NC(=O)N(Cc1cccc2ccccc12)C(=O)c1cccc(-c2ccccc2)c1` [(24)], the half-inhibitory concentration (IC50) came to 31.2 µM.
Regarding `CCCN(C(=O)N[C@@H](CSCCc1ccncc1)C(=O)O)C(=O)c1cccc(-c2ccccc2)c1` [(25)], the IC50 turned out to be 261 µM.
In turn, `CCCN(C(=O)N[C@@H](Cc1ccccc1)C(=O)O)C(=O)c1cccc(-c2ccccc2)c1` [(27)] came in with an IC50 of 194 µM.
In the case of `CCCN(C(=O)N[C@@H](Cc1ccc(O)cc1)C(=O)O)C(=O)c1cccc(-c2ccccc2)c1` [(28)], the IC50 came out at 300 µM.
In turn, `CCCN(C(=O)N[C@@H](Cc1c[nH]c2ccccc12)C(=O)O)C(=O)c1cccc(-c2ccccc2)c1` [(29)] came in with an IC50 of 88 µM.
`CCCN(C(=O)N[C@@H](COCc1ccccc1)C(=O)O)C(=O)c1cccc(-c2ccccc2)c1` [(30)] came in with a concentration for half-maximal inhibition (IC50) of 147 µM.
Molecule `CCCN(C(=O)N[C@@H](C[S+]([O-])Cc1ccccc1)C(=O)O)C(=O)c1cccc(-c2ccccc2)c1` (stereo partly shown) [(31)] displayed a concentration for half-maximal inhibition (IC50) of 165 µM.
`CCCN(C(=O)N[C@@H](CSCc1ccccc1)C(=O)O)C(=O)c1cccc(Cc2ccccc2)c1` [(33)] registered a concentration for half-maximal inhibition (IC50) of 72 µM.
Molecule `CCCN(C(=O)N[C@@H](CSCc1ccccc1)C(=O)O)C(=O)c1ccc(Cc2ccccc2)cc1` [(34)] came in with a half-maximal inhibitory concentration (IC50) of 72 µM.
As for `CCCN(C(=O)N[C@@H](CSCc1ccccc1)C(=O)O)C(=O)c1cccc(-c2ccc(F)cc2)c1` [(35)], the IC50 was 66 µM.
Regarding `O=C(O)[C@H](CSCc1ccccc1)NC(=O)N(Cc1cccc2ccccc12)C(=O)c1cccc(-c2ccc(F)cc2)c1` [(36)], the IC50 turned out to be 47 µM.
The value for `O=C(O)[C@H](CSCc1ccccc1)NC(=O)N(CCC1CC1)C(=O)c1cccc(-c2ccccc2)c1` [(37)] was 60 µM; that for `Cc1cccc(C)c1C(=O)N(C(=O)N[C@@H](CSCc1ccccc1)C(=O)O)C(C)C` [(38)] was 297 µM.
As to `CC(C)CCN(C(=O)N[C@@H](CSCc1ccccc1)C(=O)O)C(=O)c1cccc(-c2ccccc2)c1` [(39)], the IC50 is 50 µM.
On to `CSCCN(C(=O)N[C@@H](CSCc1ccccc1)C(=O)O)C(=O)c1cccc(-c2ccccc2)c1` [(40)], for which the IC50 was 63 µM.
On to `O=C(O)[C@H](CSCc1ccccc1)NC(=O)N(CCC1CC1)C(=O)c1ccc(-c2ccccc2)cc1` [(43)], for which the IC50 came to 57 µM.

Values taken from EP1763509B1, “ALPHA-HELICAL MIMETICS” (THE WALTER AND ELIZA HALL INSTITUTE OF MEDICAL RESEARCH, priority 2004, dated 2006).
